In US20260355196A1, “INHIBITORS AND DEGRADERS OF PIP4K PROTEIN” (Larkspur Biosciences, Inc., priority 2023, published 2026) one finds DC50 data, which are given here for 17 compounds.

One assay deals with T1, PIP4K2C (Homo sapiens, UniProt Q8TBX8).
T1 sequence (Q8TBX8 1-421): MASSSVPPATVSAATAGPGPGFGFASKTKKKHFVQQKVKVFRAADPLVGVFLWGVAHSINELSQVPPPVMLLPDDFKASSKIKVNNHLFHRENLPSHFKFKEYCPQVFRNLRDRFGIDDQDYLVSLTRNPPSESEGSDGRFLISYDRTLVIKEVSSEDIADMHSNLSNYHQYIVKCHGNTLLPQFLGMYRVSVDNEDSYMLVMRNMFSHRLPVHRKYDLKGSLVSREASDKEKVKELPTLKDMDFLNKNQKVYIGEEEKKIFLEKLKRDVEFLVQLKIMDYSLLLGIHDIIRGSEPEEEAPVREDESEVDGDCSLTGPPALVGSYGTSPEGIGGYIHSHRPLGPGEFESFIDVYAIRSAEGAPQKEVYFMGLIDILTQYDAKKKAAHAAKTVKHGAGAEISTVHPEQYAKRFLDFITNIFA
The assay is described as follows: HiBiT PIP4K2C degradation assay in MOLT-4 cells (endogenous PIP4K2C C-terminally tagged with HiBiT). Details: untagged in primary human PBMCs and monocyte-derived dendritic cells. The following applies: 6 hours of incubation time, rather than 24 hours; MOLT-4, top concentration 10 micromolar; read-out: HiBIT-degradation MOLT4 PIP4k2C DC50 (6 hours, marked *). The class given is cell-based. The method, boiled down:
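Cells are plated onto compound dilutions (10 points, 3-fold, top 10 micromolar) and incubated 24 or 6 hours at 37 C. Lytic HiBiT detection then quantifies tagged endogenous PIP4K2C in MOLT-4, and a Hill fit yields DC50.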
In general, DC50 refers to the midpoint of the concentration-degradation curve. As for `O=C1CCC(Nc2ccc(C3CCN([C@H]4CC[C@H](NC(=O)[C@H]5CC[C@H](Nc6ncc(F)c(-c7ccnc(N8CCOCC8=O)c7)n6)CC5)CC4)CC3)c(F)c2)C(=O)N1` (stereo partly drawn) [Compound 480, trans-N-((trans)-4-(4-(4-((2,6-dioxopiperidin-3-yl)amino)-2-fluorophenyl)piperidin-1-yl)cyclohexyl)-4-((5-fluoro-4-(2-(3-oxomorpholino)pyridin-4-yl)pyrimidin-2-yl)amino)cyclohexane-1-carboxamide], the DC50 is under 500 nM.
Still for that read-out and setting: to `O=C1CCC(Nc2ccc(N3CCN([C@H]4CC[C@H](NC(=O)[C@H]5CC[C@H](Nc6ncc(F)c(-c7cccc(N8CCOCC8)c7)n6)CC5)CC4)CC3)c(F)c2)C(=O)N1` (stereo partly drawn) [Compound 661, trans-(1r,4R)—N-((1r,4R)-4-(4-(4-((2,6-dioxopiperidin-3-yl)amino)-2-fluorophenyl)piperazin-1-yl)cyclohexyl)-4-((5-fluoro-4-(3-morpholinophenyl)pyrimidin-2-yl)amino)cyclohexane-1-carboxamide] belongs under 500 nM; to `O=C1CCC(Nc2ccc(C3CCN([C@H]4CC[C@H](C(=O)N[C@H]5CC[C@H](Nc6ncc(F)c(-c7cccc(-c8ccc[nH]c8=O)c7)n6)CC5)CC4)CC3)c(F)c2)C(=O)N1` (stereo partly drawn) [Compound 396, trans-4-(4-(4-((2,6-dioxopiperidin-3-yl)amino)-2-fluorophenyl)piperidin-1-yl)-N-(trans-4-((5-fluoro-4-(3-(2-oxo-1,2-dihydropyridin-3-yl)phenyl)pyrimidin-2-yl)amino)cyclohexyl)cyclohexane-1-carboxamide], under 500 nM.
As to `O=C1CC[C@H](Nc2ccc(C3CCN(CC4(O)CCN(C(=O)[C@H]5CC[C@H](Nc6ncc(F)c(-c7cccc(-n8ccccc8=O)c7)n6)CC5)CC4)CC3)c(F)c2)C(=O)N1` (single isomer, unassigned) [Compound 443], the DC50 was under 500 nM.
Still for that read-out and setting: to `O=C1CCC(Nc2ccc(C3CCN([C@H]4CC[C@H](NC(=O)[C@H]5CC[C@H](Nc6ncc(F)c(-c7cccc(-n8ccccc8=O)c7)n6)CC5)CC4)CC3(F)F)c(F)c2)C(=O)N1` (stereo partly drawn) [Compound 692, trans-N-(trans-4-(4-(4-((2,6-dioxopiperidin-3-yl)amino)-2-fluorophenyl)-3,3-difluoropiperidin-1-yl)cyclohexyl)-4-((5-fluoro-4-(3-(2-oxopyridin-1 (2H)-yl)phenyl)pyrimidin-2-yl)amino)cyclohexane-1-carboxamide] belongs under 500 nM.
Same read-out and setting: under `O=C1CCC(Nc2ccc(N3CCC(N4CCC(C(=O)N[C@H]5CC[C@H](Nc6ncc(F)c(-c7cccc(N8CCCCC8)c7)n6)CC5)CC4)C(F)(F)C3)c(F)c2)C(=O)N1` (stereo partly drawn) [Compound 498, trans-1′-(4-((2,6-dioxopiperidin-3-yl)amino)-2-fluorophenyl)-3′,3′-difluoro-N-(4-((5-fluoro-4-(3-(piperidin-1-yl)phenyl)pyrimidin-2-yl)amino)cyclohexyl)-[1,4′-bipiperidine]-4-carboxamide] stands under 500 nM.
For the compound `O=C1CCC(Nc2ccc(C3CCN([C@H]4CC[C@H](C(=O)N[C@H]5CC[C@H](Nc6ncc(F)c(-c7cccc(N8CCCCC8=O)c7)n6)CC5)CC4)CC3)c(F)c2)C(=O)N1` (stereo partly drawn) [Compound 447, trans-(1r,4R)-4-(4-(4-((2,6-dioxopiperidin-3-yl)amino)-2-fluorophenyl)piperidin-1-yl)-N-((1r,4R)-4-((5-fluoro-4-(3-(2-oxopiperidin-1-yl)phenyl)pyrimidin-2-yl)amino)cyclohexyl)cyclohexane-1-carboxamide], the DC50 was under 500 nM.
For the compound `O=C1CCC(Nc2ccc(N3CCC(N4CCC(NC(=O)[C@H]5CC[C@H](Nc6ncc(F)c(-c7cccc(N8CCCCC8)c7)n6)CC5)CC4)C(F)C3)c(F)c2)C(=O)N1` (stereo partly drawn) [Compound 700, trans-N-(1′-(4-((2,6-dioxopiperidin-3-yl)amino)-2-fluorophenyl)-3′-fluoro-[1,4′-bipiperidin]-4-yl)-4-((5-fluoro-4-(3-(piperidin-1-yl)phenyl)pyrimidin-2-yl)amino)cyclohexane-1-carboxamide], the 50% degradation concentration (DC50) is under 500 nM.
The same measure, in the same setting: to `O=C1CCC(Nc2ccc(C3CCN(CCC4CCN(C(=O)[C@@H]5CCC[C@H](Nc6ncc(F)c(-c7cccc(-n8ccccc8=O)c7)n6)C5)CC4)CC3)c(F)c2)C(=O)N1` (stereo partly drawn) [Compound 308, 3-((3-fluoro-4-(1-(2-(1-((1R,3S)-3-((5-fluoro-4-(3-(2-oxopyridin-1(2H)-yl)phenyl)pyrimidin-2-yl)amino)cyclohexane-1-carbonyl)piperidin-4-yl)ethyl)piperidin-4-yl)phenyl)amino)piperidine-2,6-dione] belongs under 500 nM; to `O=C1CCC(Nc2ccc(N3CCC(N4CCC(O)(C(=O)N[C@H]5CC[C@H](Nc6ncc(F)c(-c7cccc(-n8ccccc8=O)c7)n6)CC5)CC4)CC3)c(F)c2)C(=O)N1` (stereo partly drawn) [Compound 444, trans-1′-(4-((2,6-dioxopiperidin-3-yl)amino)-2-fluorophenyl)-N-(4-((5-fluoro-4-(3-(2-oxopyridin-1(2H)-yl)phenyl)pyrimidin-2-yl)amino)cyclohexyl)-4-hydroxy-[1,4′-bipiperidine]-4-carboxamide], under 500 nM.
On the same count and under the same terms, to `O=C1CCC(Nc2ccc(N3CCC(N4CCC(C(=O)N[C@H]5CC[C@H](Nc6ncc(F)c(-c7cccc(-n8ccccc8=O)c7)n6)CC5)CC4)C(F)C3)c(F)c2)C(=O)N1` (some centres unmarked) [Compound 405, 1′-(4-((2,6-dioxopiperidin-3-yl)amino)-2-fluorophenyl)-3′-fluoro-N-((1r,4r)-4-((5-fluoro-4-(3-(2-oxopyridin-1(2H)-yl)phenyl)pyrimidin-2-yl)amino)cyclohexyl)-[1,4′-bipiperidine]-4-carboxamide] belongs under 500 nM.

The assay is the same for the next values; noted with them: 24 hours incubation, MOLT-4, top concentration 10 micromolar; read-out: HiBIT-degradation MOLT4 PIP4k2C 24 hours DC50.
`Cn1c(=O)n(C2CCC(=O)NC2=O)c2ccc(C3CCN(C4CCCN(CC(=O)N5CCC(Nc6ncc(Cl)c(-c7cccc(-c8ccc(F)cc8)c7)n6)CC5)C4)CC3)cc21` (centres unmarked) [Compound 275, 3-(5-(1′-(2-(4-((5-chloro-4-(4′-fluoro-[1,1′-biphenyl]-3-yl)pyrimidin-2-yl)amino)piperidin-1-yl)-2-oxoethyl)-[1,3′-bipiperidin]-4-yl)-3-methyl-2-oxo-2,3-dihydro-1H-benzo[d]imidazol-1-yl)piperidine-2,6-dione]: the DC50 is under 500 nM.
As for `O=C1CCC(Nc2ccc(C3CCN([C@H]4CC[C@@H](CNC(=O)[C@H]5CCC[C@@H](Nc6ncc(F)c(-c7cccc(-n8ccccc8=O)c7)n6)C5)CC4)CC3)c(F)c2)C(=O)N1` (relative stereo) [Compound 337, cis-N-((cis-4-(4-(4-((2,6-dioxopiperidin-3-yl)amino)-2-fluorophenyl)piperidin-1-yl)cyclohexyl)methyl)-3-((5-fluoro-4-(3-(2-oxopyridin-1(2H)-yl)phenyl)pyrimidin-2-yl)amino)cyclohexane-1-carboxamide], the half-maximal degradation concentration (DC50) was under 500 nM.
Regarding `O=C1CCC(N2Cc3cc(OC4CCN(CC5CCN(CC(=O)N6CCC(Nc7ncc(Cl)c(-c8cccc(-c9ccccc9)c8)n7)CC6)CC5)CC4)ccc3C2=O)C(=O)N1` (centres unmarked) [Compound 85, 3-(5-((1-((1-(2-(4-((4-([1,1′-biphenyl]-3-yl)-5-chloropyrimidin-2-yl)amino)piperidin-1-yl)-2-oxoethyl)piperidin-4-yl)methyl)piperidin-4-yl)oxy)-1-oxoisoindolin-2-yl)piperidine-2,6-dione], the DC50 was under 500 nM.
On the same count and under the same terms, to `O=C1CCC(n2c(=O)oc3cc(N4CCC(N5CCC(CNC(=O)[C@H]6CCC[C@@H](Nc7ncc(F)c(-c8cccc(-n9ccccc9=O)c8)n7)C6)CC5)CC4)ccc32)C(=O)N1` (relative stereo) [Compound 299, cis-N-((1′-(3-(2,6-dioxopiperidin-3-yl)-2-oxo-2,3-dihydrobenzo[d]oxazol-6-yl)-[1,4′-bipiperidin]-4-yl)methyl)-3-((5-fluoro-4-(3-(2-oxopyridin-1(2H)-yl)phenyl)pyrimidin-2-yl)amino)cyclohexane-1-carboxamide] belongs under 500 nM.
Still for that read-out and setting: to `O=C1CCC(n2c(=O)oc3cc(C4CCN(CCC5CCN(C(=O)[C@H]6CC[C@H](Nc7ncc(F)c(-c8cccc(-n9ccccc9=O)c8)n7)CC6)CC5)CC4)ccc32)C(=O)N1` (stereo partly drawn) [Compound 321, trans-3-(6-(1-(2-(1-(4-((5-fluoro-4-(3-(2-oxopyridin-1(2H)-yl)phenyl)pyrimidin-2-yl)amino)cyclohexane-1-carbonyl)piperidin-4-yl)ethyl)piperidin-4-yl)-2-oxobenzo[d]oxazol-3 (2H)-yl)piperidine-2,6-dione] belongs under 500 nM.

The same assay, now with this note: read-out: HiBIT-degradation MOLT4 PIP4k2C 24 hours DC50; 24 hours incubation, MOLT-4, top concentration 10 micromolar.
For the compound `Cn1c(=O)n(C2CCC(=O)NC2=O)c2ccc(N3CCC(N4CCC(C(=O)N[C@H]5CC[C@H](Nc6ncc(F)c(-c7cccc(-n8ccccc8=O)c7)n6)CC5)CC4)CC3)cc21` (stereo partly drawn) [Compound 344, trans-1′-(1-(2,6-dioxopiperidin-3-yl)-3-methyl-2-oxo-2,3-dihydro-1H-benzo[d]imidazol-5-yl)-N-(4-((5-fluoro-4-(3-(2-oxopyridin-1(2H)-yl)phenyl)pyrimidin-2-yl)amino)cyclohexyl)-[1,4′-bipiperidine]-4-carboxamide], the DC50 was under 500 nM.
